Laboratory results: patent US20080227838A1, “Method for neuroprotection with glycoluril derivatives” (Cereprotec Incorporated, priority 2007, published 2008)

How the values were obtained:
head trauma in mice [1] = assay: Brain edema (tissue water content) after closed head injury in mice; assay type: in vivo
Description: (§1) The cerebroprotective effect of mebicar was assessed in a model of head trauma in mice (Beni-Adani et al., 2001). This type of trauma produces brain edema (i.e. increase in water content), breakdown of the blood brain barrier (BBB) and clinical dysfunction. The clinical status of the mice is evaluated 1 and 24 hours after injury along with measurement of the extent of cerebral edema. The neurological deficit, assessed by a set of criteria termed the Neurological Severity Score (NSS), is maximal at 1 hour after the initiation of head trauma. The NSS slowly decreases over time from the initiation of head trauma, with the gradual spontaneous recovery of the mice.
(i) Induction of closed head injury (CHI) in a mice model. Male Sabra mice (strain from Hebrew University of Jerusalem, Israel), weighing 35 to 45 g, were used. CHI was induced under ether anesthesia. A metal rod weighing 333 g was allowed to free fall from a prefixed height (at 3 cm for a mouse weighing 28-32 g) over the exposed skull covering the left hemisphere in the midcoronal plane. The tip of the rod is covered with silicone, and it delivers the impact to the head that is fixed on the bottom plane of the trauma device. Sham-operated mice were anesthetized, their skull exposed, but trauma was not induced. After CHI the mice were assigned to vehicle or mebicar treatment.
(iii) Evaluation of water content (brain edema). The extent of cerebral edema was evaluated by determining the tissue water content in the injured hemisphere, as previously described (Beni-Adani et al., 2001). Briefly, mice were sacrificed 24 h after injury, the time of peak edema formation, and brain cortical samples of ˜20 mg were cut from the left (traumatized) and right (contralateral) hemispheres, from the site bordering the lesion. The right (non-injured) hemisphere was used as an internal control. Samples were weighed before and after drying in a desiccated oven for 24 h at 95° C. After weighing the “dried” sections, the brain water content was calculated as % H2O=[(wet weight−dry weight)×100]/wet weight.
(iv) Evaluation of drug effect on brain edema. In order to evaluate the effect of a drug, and to do it in a “clinical-relevant” setting, the drug is given 1 h after the injury, immediately after the initial assessment of NSS. This protocol allows a homogenous distribution of the mice between the drug and vehicle treatments, and ensures similar severity of injury in both groups. NSS is then evaluated again at 24 h after injury, and ΔNSS is calculated. The mice are then sacrificed, their brain removed and cortical segments from the site of injury, and contralaterally, are taken for evaluation of edema, as described above in (iii). […]

head trauma in mice [2] = assay: Clinical evaluation (Neurological Severity Score) after closed head injury in mice; assay type: in vivo; details: mebicar 750 mg/kg i.p., 5 mice out of 9, spontaneous recovery 2 out of 10 (20%)
Description: as §1
(i) Induction of closed head injury (CHI) in a mice model. […]
(ii) Clinical evaluation of the mice after CHI. Mice were evaluated to define the severity of injury and functional recovery by using a set of clinical criteria. […]
For assessment of posttraumatic neurological impairment, a Neurological Severity Score (NSS) previously described, modified and validated, was used (Shapira et al. 1988; Chen et al. 1996; Beni-Adani et al. 2001). […] The ΔNSS, calculated as the difference between NSS at 1 h and the NSS at any later time-point, is a parameter which reflects the degree of spontaneous recovery following brain injury, as described (Chen et al., 1996; Yatsiv et al., 2002; Beni-Adani et al., 2001). […]

[3] = in vivo; cited from earlier work
[4] = in vivo; cited from earlier work; remark: listed apart in the source
stress and hypoxia = details: 100-1000 mg/kg, cited from earlier work
[5] = test system: neuroactive amino acids in the animal's brain; details: cited from earlier work
experimental arrhythmias = details: in vivo; cited from earlier work
shock = details: in vivo; cited from earlier work
myocardial contractility = details: in vivo; cited from earlier work

In the case of `CN1C(=O)N(C)C2C1N(C)C(=O)N2C` (centres unmarked) [mebicar, 2,4,6,8-tetramethyl-2,4,6,8-tetraazabicyclo[3.3.0]-octane-3,7-dione], the “Water content in the brain % (contralateral hemisphere)” value (head trauma in mice [1]; mice, closed head injury, mebicar 750 mg/kg intraperitoneally 1 h after injury, 24 h after injury, contralateral hemisphere, M ± SE) is reported as 77.9 ± 0.27%, the “Water content in the brain % (traumatized area)” value (head trauma in mice [1]; mice, closed head injury, mebicar 750 mg/kg intraperitoneally 1 h after injury, 24 h after injury, traumatized area, M ± SE) is reported as 80.7 ± 0.41% and the “effect on water content of the contralateral hemisphere” value (head trauma in mice [1]; traumatized mice, mebicar 750 mg/kg i.p.) is reported as “decreased water content up to normal parameters”. For the same compound, the “less water accumulated in the traumatized hemisphere of the brain” value (head trauma in mice [1]; traumatized mice, mebicar 750 mg/kg i.p., versus untreated traumatized mice) was “About 35%”, the “recovery in clinical function (share of mice)” value (head trauma in mice [2]) was 55.5% and the metabolism [3] was “not metabolized”. For the same compound, the “time to leave the organism” value [3] was ≤ 24 h, the toxicity [4] was “extremely low toxicity” and the “effect on parameters of body function under extreme conditions” value (stress and hypoxia; stress and hypoxia) was “protective action”. For the same compound, the “effect on muscle tone, movement coordination, working capacity” value (stress and hypoxia; tested animals) was “without affecting the muscle tone, movement coordination or working capacity”, the “change of balance of neuroactive amino acids in the brain” value [5] was “raising the content of gamma-butyric acid” and the “effect in experimental arrhythmias” value (experimental arrhythmias) was “protective action”. The “effect in shock; acid-base and oxygen homeostasis” value (shock) was “antishock action” and the “effect on myocardial contractility” value (myocardial contractility) was “increase the myocardial contractility”.
